# In US10906900B2, “Compounds for using in imaging and particularly for the diagnosis of neurodegenerative diseases” (CENTRE NATIONAL DE LA RECHERCHE SCIENTIFIQUE, priority 2016, dated 2021):
# Tests used:
# Tau fibers = Tau fibers (Homo sapiens (Human), UniProt P10636); test: In vitro direct determination of Kd and Bmax by fluorescence, Tau fibers; assay type: binding
# Protocol: Human Tau protein (isoform h2N4RTau) is expressed in the vector pET11d in E. Coli (strain BL21 (DE3), (Stratagene, La Jolla, Calif.)) and purified according to the described method (Barghorn S, Biernat J, Mandelkow E. (2005) Methods Mol Biol. 299:35-51). The Tau purified concentration is determined by measuring the absorbance at 280 nm using a molar extinction coefficient of 7450 M^−1 cm^−1.
# Tau protein in PBS buffer containing 1 mM DTT is assembled into fiber in the presence of one twelfth of a molar equivalent of heparin at 37° C. under stirring.
# (§1) Fresh solutions of each test compound (2.5 mM in DMSO) are diluted in PBS pH=7.4 at concentrations between 0.5 nM and 5 μM in the presence or absence of α-syn (200 nM), Aβ1-42 (500 nM) or Tau (200 nM) fibers in a final 2 mL volume. After 1 h of incubation at RT, the binding of each compound to α-syn, A131-42 or Tau fibers is measured by fluorescence using the spectral changes of the compounds during their binding to the fibers, using the appropriate excitation/emission wavelengths (those giving the highest fluorescence variation during binding to the fibres). For each concentration of compound added to the fibres, the bound and free fractions are measured by fluorescence according to the following equation: Fm=FBB+FF×(T−B)
# Where Fm is the fluorescence measured in the presence of fibers at a concentration T of the compound added to the fibers, FB is the specific fluorescence of the bound compound, FF is the specific fluorescence of the free compound, and B is the concentration of the fiber bound compound at a given concentration T (Bell, J. E., “Fluorescence; Solution Studies”, Spectrometry in Biochemistry, vol. I, Bell, J. E., ed., CRC Press, Inc., Boca Raton, Fla., pp. 155-194 (1981)).
# (§2) The value of FF is determined by measuring the fluorescence of known concentrations of compounds in the absence of fibres. The FB value is determined by measuring the maximum fluorescence of known concentrations of compounds in the presence of saturated concentrations of α-syn, Aβ1-42, or Tau fibers.
# Thus, at each point, the concentration of bound compound B is determined according to the following equation: B=(Fm−FF×T)/(FB−FF)
# (§3) The values of B thus determined versus the concentrations of the free fractions (T-B) are analyzed according to the Michaelis-Menten equation. The affinity (Kd) and density of binding sites within the fibers of α-syn, Aβ1-42 or Tau (Bmax) are determined by Scatchard analysis, which also makes it possible to highlight multiple site classes.
# Aβ1-42 fibers [1] = target: Aβ1-42 fibers (Homo sapiens, UniProt P05067); test: In vitro direct determination of Kd and Bmax by fluorescence, Aβ1-42 fibers; assay type: binding
# Sequence of Aβ1-42 fibers (Homo sapiens, UniProt P05067) (P05067 672-713 limits assumed): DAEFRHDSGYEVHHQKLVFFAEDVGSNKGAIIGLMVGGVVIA
# Protocol: (§4) To obtain fiber assembly, α-syn is incubated in Tris-HCl 50 mM pH7.5, KCl 150 mM at 37° C. under continuous agitation during 4 days. The lyophilized Aβ1-42 was dissolved in 1,1,1,3,3,3-Hexafluoro-2-propanol (HFIP) at 0.2 mg/mL and incubated for 24 h at 37° C. to obtain the complete solubilization. The HFIP is evaporated under nitrogen stream to obtain a dry product. To start the fiber assembly, the dry peptide is resuspended in PBS pH7.4, 10% (v/v) DMSO and incubated at 37° C. for 3 days without agitation.
# as §1, §2, §3
# Aβ1-42 fibers [2] = test: as above; assay type: binding; conditions: selective = good affinity and at least two times greater than for at least one of the two other proteins
# Protocol: as §4, §1, §2, §3
# [3] = In vivo evaluation of fluorine-18-labelled tracer: PET/CT and tissue radioactivity (BBB crossing, bone fixation); conditions: healthy adult male Wistar rat, intravenous injection of 18F tracer
# Protocol: The objective is to determine whether the tracer has the blood-brain barrier (BBB) crossing properties in sufficient quantities to be used as a PET imaging tracer. In addition, bone fixation can be qualified, which reflects the degree of defluorination of the tracer in vivo.
# Animal Model: Adult male rats of Wistar strain.
# In vivo study: the healthy animal receives an intravenous injection of the tracer test (molecule 28).
# From the moment of injection, imaging is carried out using a dedicated system (PET/CT) which records the intracerebral accumulation of radioactivity (Sérrière et al. Nucl. Med. Biol. 2014, 41:103-13; Sérrière et al. Neurobiol. Aging 2015, 36:1639-52). At the end of the imaging, the animal is euthanized; the brain and a bone fragment (femur) are collected, weighed and their radioactivity is measured. This method allows to precisely quantify the accumulation of the tracer in the tissues. The results are expressed as a percentage of the injected tracer dose/g of tissue (% DI/g).
# α-syn fibers = α-syn fibers (Homo sapiens (Human), UniProt P37840); test: In vitro direct determination of Kd and Bmax by fluorescence, α-syn fibers; assay type: binding
# Protocol: as §4, §1, §2, §3
# [4] = density of binding sites, direct fluorescence, Scatchard analysis
# Sequence of Tau fibers (P10636 other isoform, or with tags, fused parts or gaps): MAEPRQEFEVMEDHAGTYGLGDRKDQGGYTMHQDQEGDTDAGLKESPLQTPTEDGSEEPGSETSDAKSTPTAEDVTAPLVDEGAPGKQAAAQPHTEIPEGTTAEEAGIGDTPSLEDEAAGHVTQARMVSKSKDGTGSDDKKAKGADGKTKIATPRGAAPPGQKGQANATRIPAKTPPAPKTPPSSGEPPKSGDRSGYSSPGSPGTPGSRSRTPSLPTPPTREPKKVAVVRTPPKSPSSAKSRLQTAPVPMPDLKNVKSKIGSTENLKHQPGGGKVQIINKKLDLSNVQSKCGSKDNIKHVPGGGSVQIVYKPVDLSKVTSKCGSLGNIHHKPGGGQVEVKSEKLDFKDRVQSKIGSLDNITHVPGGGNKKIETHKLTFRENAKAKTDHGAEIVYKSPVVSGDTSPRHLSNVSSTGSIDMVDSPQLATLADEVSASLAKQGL
structure (smiles),measurement,setting,value
"CN(CCF)c1ccc(C#Cc2cc3cccnc3[nH]2)cc1 [Compound 28, 4-((1H-Pyrrolo[2,3-b]pyridin-2-yl)ethynyl)-N-(2-fluoroethyl)-N-methylaniline]",Tau Bmax1,Tau fibers; [4],46.5 ± 5 nmol/μmol prot
same,Kd,"Tau fibers; direct fluorescence, Scatchard analysis, Tau fibers 200 nM, read-out: Tau Kd1",0.97 ± 0.4 nM
same,Tau Bmax1 (number of sites/monomer),Tau fibers; in brackets in the Bmax cell,1/20
same,Tau selectivity according to analysis of Kd (Tables 6 and 7),Tau fibers; selective = good affinity and at least two times greater than for at least one of the two other proteins,selective
same,Aβ Bmax1,Aβ1-42 fibers [1]; [4],1.8 ± 0.6 nmol/μmol prot
same,Kd,"Aβ1-42 fibers [1]; direct fluorescence, Scatchard analysis, Aβ1-42 fibers 500 nM, read-out: Aβ Kd1",1.2 ± 1 nM
same,Aβ Bmax1 (number of sites/monomer),Aβ1-42 fibers [1]; in brackets in the Bmax cell,1/600
same,Aβ selectivity according to analysis of Kd (Tables 6 and 7),Aβ1-42 fibers [2],selective
same,"Passing of the BBB: brain accumulation, percentage of injected tracer dose/g of tissue",[3]; brain collected at end of imaging,≈ 0.4 % DI/g
same,"binding to bone: femur accumulation, percentage of injected tracer dose/g of tissue","[3]; femur at end of imaging, reflects defluorination",0.3 % DI/g
same,αsyn Bmax1,α-syn fibers; [4],141.5 ± 45 nmol/μmol prot
same,Kd,"α-syn fibers; direct fluorescence, Scatchard analysis, α-syn fibers 200 nM, read-out: αsyn Kd1",2.4 ± 1 nM
same,αsyn Bmax1 (number of sites/monomer),α-syn fibers; in brackets in the Bmax cell,1/7
